PubChem BioAssay (NCI)
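Following 48 hours of exposure in 96-well plates, responses at five concentrations were used to interpolate endpoints linearly. GI50 is the concentration that inhibits growth by half. The concentration for full growth arrest is given as TGI.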

Assays:
Assay in all cases: NCI-60 cell line screen, 48 h
[1] = system: M14 melanoma
[2] = system: CAKI-1 renal
[3] = system: RXF 393 renal
[4] = system: T-47D breast
[5] = system: SN12C renal
[6] = system: HCT-15 colon
[7] = system: U251 CNS
[8] = system: OVCAR-5 ovarian
[9] = system: NCI-H23 lung
[10] = system: SNB-19 CNS

CCCN(CCSSCCNc1nc(N(C)O)nc(N(C)O)n1)c1nc(N(C)O)nc(N(C)O)n1
GI50 [1]: 5.68 µM | TGI [1]: > 100 µM | GI50 [2]: 2.47 µM | TGI [2]: > 100 µM | GI50 [3]: 81 µM | TGI [3]: > 100 µM | GI50 [4]: 7.14 µM | TGI [4]: > 100 µM | GI50 [5]: 9.84 µM | TGI [5]: > 100 µM | GI50 [6]: 4.28 µM | TGI [6]: > 100 µM | GI50 [7]: 5.35 µM | TGI [7]: > 100 µM | GI50 [8]: > 100 µM | TGI [8]: > 100 µM | GI50 [9]: 18 µM | TGI [9]: > 100 µM | GI50 [10]: 4.15 µM | TGI [10]: > 100 µM

O=C(COc1cccc(/C=C2\CSc3ccccc3C2=O)c1)c1ccc(Cl)cc1
GI50 [1]: 1.63 µM | TGI [1]: 3.09 µM | GI50 [2]: 3.97 µM | TGI [2]: 10.1 µM | GI50 [3]: 2.67 µM | TGI [3]: 6.73 µM | GI50 [4]: 2.15 µM | TGI [4]: 5.43 µM | GI50 [5]: 2.54 µM | TGI [5]: 8.47 µM | GI50 [6]: 1.92 µM | TGI [6]: 5.37 µM | GI50 [7]: 1.42 µM | TGI [7]: 2.72 µM | GI50 [8]: 1.85 µM | TGI [8]: 4.08 µM | GI50 [9]: 1.92 µM | TGI [9]: 4.15 µM | GI50 [10]: 3.18 µM | TGI [10]: 9.38 µM

O=[N+]([O-])c1ccc2nc3ccccc3cc2c1
TGI [1]: 18.1 µM | TGI [2]: 0.0944 µM | TGI [3]: > 100 µM | TGI [4]: 15.4 µM | TGI [5]: 5.63 µM | TGI [6]: 10 µM | TGI [7]: 10.6 µM | TGI [8]: 7.06 µM | TGI [9]: 6.22 µM | TGI [10]: 12.9 µM
